We go through eight substances from US5670618A, “Insulin-like peptide” (The State University of New Jersey, priority 1995, dated 1997).

Data set [1] concerns cell wall-less strain of Neurospora. Conditions: cited from earlier work.
A further data set relates to Tetrahymena pyriformis. Conditions: cited from earlier work.
In data set [2] the target is T1, membrane-associated adenylate cyclase from Neurospora crassa (Neurospora crassa, UniProt Q01631).
T1 construct: host or cells: Neurospora crassa membranes
Conditions: insulin at low doses (10^-9 M); cited from earlier work.

The target in data set [3] is isolated plasma membranes (high affinity binding sites for insulin and IGF-I). Put plainly: binding assays with isolated plasma membranes. Also on record: species or system S. cerevisiae.
The subject of data set [4] is solubilized and wheat germ column purified plasma membrane preparations. Put plainly: binding to solubilized and wheat germ column purified plasma membrane preparations. Also on record: species or system S. cerevisiae. Conditions: wheat germ column purified membranes, comparable conditions.
Data set [5] has as its system stationary phase cells (yeast). The experiment in a line: stimulation of glycogen synthesis in yeast (14C-glucose incorporation). Conditions: binding to insulin-related receptor on yeast cell, under proper conditions. The data set is classed as cell-based. Here is the method: To assay the effect of ScILP on glycogen synthesis, stationary phase cells are preincubated in phosphate buffer with various doses of ScILP (or a variant thereof). After 30 min of incubation in the presence of 1% glucose and uniformly labelled ^14 C-glucose, the cells are pelleted, resuspended in sodium carbonate, neutralized with HCl and treated with α-amylase to release the glucose incorporated into the newly synthesized glycogen. The enzymatically released glucose is collected and quantitated by scintillation counting.

Data set [6] relates to cell wall-less strain of Neurospora. Conditions: added to nutritionally rich, chemically defined culture medium; cited from earlier work.
The subject of data set [7] is insulin receptor-like protein in yeast. The experiment in a line: autophosphorylation of insulin receptor-like protein in yeast. The data set is classed as cell-based.
In the next data set the test system is intact yeast cells. The experiment in a line: porcine 125I-insulin binding and displacement, intact yeast cells. Also on record: species or system S. cerevisiae. Here is the method: Insulin binding studies with intact logarithmic and stationary phase yeast cells were performed under typical conditions for mammalian cells (25,26). In logarithmic phase yeast, porcine ^125 I-insulin binding had reached apparent equilibrium by 1-2 h and represented ca. 0.5% of the total counts specifically bound (FIG. 2a). At this time, greater than 95% of the labelled insulin appeared to be intact, as judged by TCA precipitable counts. Unlabelled porcine insulin displaced labelled insulin from intact yeast cells in a dose dependent fashion with 50% bound occurring around 10^-9 M (FIG. 2b). This value is in good agreement with the value obtained for displacement of insulin from mammalian cells.

T1 sequence (Q01631 whole entry): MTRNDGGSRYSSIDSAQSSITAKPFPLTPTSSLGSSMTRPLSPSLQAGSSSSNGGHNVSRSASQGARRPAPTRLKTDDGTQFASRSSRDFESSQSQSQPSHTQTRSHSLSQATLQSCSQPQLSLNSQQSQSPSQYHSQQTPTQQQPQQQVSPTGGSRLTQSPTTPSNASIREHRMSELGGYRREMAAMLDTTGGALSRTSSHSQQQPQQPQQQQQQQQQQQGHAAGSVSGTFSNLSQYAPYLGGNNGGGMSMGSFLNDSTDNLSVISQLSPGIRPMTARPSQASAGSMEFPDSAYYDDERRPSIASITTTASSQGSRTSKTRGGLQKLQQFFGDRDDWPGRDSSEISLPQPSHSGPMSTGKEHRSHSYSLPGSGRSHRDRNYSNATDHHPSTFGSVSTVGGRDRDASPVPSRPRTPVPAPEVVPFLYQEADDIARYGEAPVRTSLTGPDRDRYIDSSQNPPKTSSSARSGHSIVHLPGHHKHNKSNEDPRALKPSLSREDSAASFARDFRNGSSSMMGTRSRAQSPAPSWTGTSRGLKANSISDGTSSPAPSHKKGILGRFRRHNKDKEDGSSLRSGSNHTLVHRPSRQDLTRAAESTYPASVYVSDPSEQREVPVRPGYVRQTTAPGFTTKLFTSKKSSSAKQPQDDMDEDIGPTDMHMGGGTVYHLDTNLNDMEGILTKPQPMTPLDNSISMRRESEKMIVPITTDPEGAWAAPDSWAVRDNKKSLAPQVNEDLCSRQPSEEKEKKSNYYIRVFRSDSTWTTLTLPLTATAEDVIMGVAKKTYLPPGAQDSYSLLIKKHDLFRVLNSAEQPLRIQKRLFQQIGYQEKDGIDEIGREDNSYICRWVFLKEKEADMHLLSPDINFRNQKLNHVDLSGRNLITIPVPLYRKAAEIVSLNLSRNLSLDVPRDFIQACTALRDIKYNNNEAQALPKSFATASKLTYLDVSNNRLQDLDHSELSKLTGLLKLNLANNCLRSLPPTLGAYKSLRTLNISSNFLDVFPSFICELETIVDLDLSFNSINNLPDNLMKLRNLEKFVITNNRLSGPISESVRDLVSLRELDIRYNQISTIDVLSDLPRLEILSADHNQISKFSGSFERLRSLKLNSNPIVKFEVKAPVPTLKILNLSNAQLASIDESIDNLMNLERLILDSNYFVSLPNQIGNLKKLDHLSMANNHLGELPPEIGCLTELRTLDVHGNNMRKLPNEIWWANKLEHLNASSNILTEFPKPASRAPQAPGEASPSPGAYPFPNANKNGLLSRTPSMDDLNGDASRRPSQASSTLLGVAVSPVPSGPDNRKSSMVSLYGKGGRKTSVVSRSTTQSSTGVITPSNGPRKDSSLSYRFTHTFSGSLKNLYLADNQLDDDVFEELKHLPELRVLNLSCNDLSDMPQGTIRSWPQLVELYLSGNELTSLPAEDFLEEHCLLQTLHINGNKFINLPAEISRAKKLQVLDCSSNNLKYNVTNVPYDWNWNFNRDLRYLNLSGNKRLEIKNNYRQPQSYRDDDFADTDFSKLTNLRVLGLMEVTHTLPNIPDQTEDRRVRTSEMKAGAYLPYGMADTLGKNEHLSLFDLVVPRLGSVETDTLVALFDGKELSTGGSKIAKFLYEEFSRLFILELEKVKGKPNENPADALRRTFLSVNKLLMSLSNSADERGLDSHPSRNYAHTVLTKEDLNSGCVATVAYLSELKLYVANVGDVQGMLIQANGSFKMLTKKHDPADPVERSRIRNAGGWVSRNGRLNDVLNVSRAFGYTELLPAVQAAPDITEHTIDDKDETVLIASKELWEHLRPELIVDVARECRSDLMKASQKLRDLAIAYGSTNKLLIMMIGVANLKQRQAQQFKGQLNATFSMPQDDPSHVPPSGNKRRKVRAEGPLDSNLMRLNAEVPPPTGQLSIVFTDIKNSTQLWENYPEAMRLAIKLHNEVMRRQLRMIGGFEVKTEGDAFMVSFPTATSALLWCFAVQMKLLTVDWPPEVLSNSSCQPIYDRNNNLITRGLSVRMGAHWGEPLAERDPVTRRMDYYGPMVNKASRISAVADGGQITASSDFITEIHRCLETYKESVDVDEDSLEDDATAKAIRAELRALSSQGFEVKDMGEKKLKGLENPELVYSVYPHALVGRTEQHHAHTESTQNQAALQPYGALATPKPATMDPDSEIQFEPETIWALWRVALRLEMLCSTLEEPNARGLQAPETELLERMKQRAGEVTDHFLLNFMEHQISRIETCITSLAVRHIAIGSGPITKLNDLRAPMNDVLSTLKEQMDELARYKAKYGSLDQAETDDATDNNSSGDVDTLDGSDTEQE

With bovine insulin, the “increase of 14C-labelled glucose incorporation into glycogen” value in data set [1] (30 min treatment, 100 nM) was 41%. In addition, the “more glycogen than control cells” value in data set [1] (cells grown in presence of 100 nM insulin) was 40%. Also, the “intracellular levels of UDPG-glucose by 31P-NMR” value in data set [1] is recorded as “increase”. Moreover, the “effect on glucose uptake” value in the data set with Tetrahymena pyriformis is “small effect”. The “effect on adenylate cyclase specific activity” value in data set [2] is on record as “significantly inhibit”.
On to glucagon, for which, in data set [2], the “effect on adenylate cyclase specific activity” value is “stimulated adenylate cyclase activity”.
The Kd is a measure of binding affinity in units of concentration. The low end stands for tighter binding, the high end for weaker binding. insulin had a Kd in data set [3] of 0.7 nM. Further, in [4], the “specific binding (of 4-5% total binding)” value is given as 1-2%.
On to insulin-like growth factor (IGF-I), for which, in [4], the “specific binding (of 4-5% total binding)” value is given as 1-2%.
Regarding mammalian insulin, in data set [5], the “effect on glycogen synthesis” value was “stimulates glycogen synthesis”. Besides, in data set [6], the “influence on growth, morphology and viability” value is “distinctively different morphology, enhanced growth, and extension of viability at the stationary phase in culture”. The “autophosphorylation of insulin receptor-like protein on tyrosine residues” value in [7] is on record as “results in its autophosphorylation on tyrosine residues”.
As to porcine insulin, in the data set with intact yeast cells (at apparent equilibrium of binding (1-2 h)), the “labelled insulin intact, judged by TCA precipitable counts” value is “greater than 95%”. For the same substance, the IC50 with intact yeast cells (intact yeast cells, dose dependent displacement, read-out: concentration of unlabelled insulin at 50% bound (displacement of labelled insulin)) was roughly 1 nM. Moreover, the “time to apparent binding equilibrium” value in the data set with intact yeast cells (logarithmic phase yeast) fell in the range of 1 to 2 h. Further, the “total counts specifically bound” value in the data set with intact yeast cells (logarithmic phase yeast, at apparent equilibrium) is listed as “ca. 0.5%”.
For the substance proinsulin, in data set [6], the “influence on growth, morphology and viability” value is “inactive”.
Regarding reduced insulin, in data set [6], the “influence on growth, morphology and viability” value was “inactive”.
